Test results from patent publication US12350259B2, “Methods of treating migraine” (Allergan Pharmaceuticals International Limited, priority 2021, dated 2025).
Where two headings read alike, the source gives them in different places.

Key:
[1] = Atogepant-itraconazole interaction study: safety and tolerability; type: in vivo, human; conditions: itraconazole alone
Source text: The primary objective of this study was to assess the effects of multiple dose itraconazole on the pharmacokinetics of a single dose of atogepant. The primary endpoints were PK parameters of atogepant derived from plasma concentrations. The secondary objectives of the study were to assess the safety and tolerability of atogepant and itraconazole given alone and in combination, and to establish the correlation between concentrations of atogepant in dried blood sample (DBS) (obtained via finger stick) and plasma. The secondary endpoints included AEs, clinical laboratory parameters, vital signs, ECG, and physical examination, and correlation of concentrations of atogepant in DBS and plasma. Subjects who satisfied the inclusion and exclusion criteria were assigned to a single fixed-treatment sequence in which they received Treatment A followed by Treatment B; there was a 7-day washout period between treatments. • Treatment A: Single oral 60 mg dose of atogepant (tablet) under fasted conditions on Day 1 • Treatment B • Days 8-14: Itraconazole 200 mg (tablet) orally once daily under fed conditions. • Day 15: Itraconazole 200 mg coadministered with atogepant 60 mg (tablet) under fasted conditions. • Days 16 to 17: Itraconazole 200 mg (tablet) once daily under fed conditions.

[2] = Atogepant-quinidine gluconate interaction study: safety; type: in vivo, human; conditions: during quinidine gluconate administration; 33 enrolled
Source text: Atogepant PK parameters calculated were peak plasma concentration (Cmax); time to Cmax (tmax); and area under plasma concentration—time curve from time 0 to time t (AUC0-t) and infinity (AUC0-∞). […] Safety assessments included clinical laboratory values, vital signs, electrocardiograms, and […] adverse events (TEAEs).

[3] = Atogepant-topiramate interaction study, cohort 2: topiramate steady-state PK; type: in vivo, human; conditions: for AUC / Cmax: both sexes, human, plasma
Experimental: An open-label, single-center, multiple-dose 2-cohort, phase 1 trial was carried out to assess the potential of a PK DDI between atogepant and topiramate in healthy adult participants. Eligible participants were enrolled either in cohort 1 to evaluate the effect of topiramate 100 mg twice daily on the PK of atogepant […] once daily or in cohort 2 to evaluate the effect of atogepant 60 mg once daily on the PK of topiramate 100 mg twice daily. Participants in cohort 1 received atogepant alone on days 1-7 and atogepant plus topiramate on days 8-17. Participants in cohort 2 received topiramate alone on days 1-10 and topiramate plus atogepant on days 11-17.
The duration of the study was 25 days (±2 days), which included day −1 through the follow-up visit and excluded the screening period. The screening period was up to 21 days before day 1 and the intervention period was a total of 19 days, at which point the end of dosing visit was conducted. Cerebrospinal fluid (CSF) samples for measurement of atogepant concentration were collected via lumbar puncture in a subset of consenting participants in cohort 1. CSF samples were collected once from individual participants in the CSF collection subset at 2 or 6 hours after the morning dose on day 6 for cohort 1. Clinical laboratory tests were performed at the follow-up visit, which was conducted on day 24 (7 [±2] days after the last dose of study medication.
Participants were excluded if they had clinically significant abnormal electrocardiogram (ECG) results or QT prolongation (QTcF ≥450 msec for males, ≥470 for females), or any clinical condition or previous surgery that may affect the absorption, distribution, biotransformation, or excretion of atogepant or topiramate.
The primary endpoints were area under the plasma concentration-time curve during dosing interval at steady state (AUC0-tau,ss) and maximum plasma drug concentration at steady state (Cmax,ss) of atogepant and topiramate when coadministered and when administered alone. Additional PK parameters included time of maximum plasma drug concentration at steady state (Tmax,ss), average plasma drug concentration at steady state (Cavg,ss), and minimum plasma drug concentration at steady state (Cmin,ss) of topiramate and atogepant when coadministered and when administered alone.

[4] = Atogepant-topiramate interaction study: safety and tolerability; type: in vivo, human
[5] = topiramate; cited from earlier work
[6] = topiramate 100 mg BID + atogepant 60 mg QD, day 17
[7] = topiramate 100 mg BID alone, day 10
[8] = with atogepant coadministration

CCC(C)n1ncn(-c2ccc(N3CCN(c4ccc(OCC5COC(Cn6cncn6)(c6ccc(Cl)cc6Cl)O5)cc4)CC3)cc2)c1=O (stereo not drawn) [itraconazole, reference compound]
subjects experiencing constipation (TEAE) [1]: 1 subject | subjects experiencing headache (TEAE) [1]: 2 subjects

C=C[C@H]1C[N@@]2CC[C@H]1C[C@@H]2[C@@H](O)c1ccnc2ccc(OC)cc12 [quinidine gluconate, reference compound]
participants discontinued because of TEAEs (all electrocardiogram QT prolongation) [2]: 10

CC1(C)O[C@@H]2[C@@H](CO[C@@]3(COS(N)(=O)=O)OC(C)(C)O[C@@H]23)O1 [topiramate]
AUC ([3]; 100 mg, Topiramate Alone, read-out: AUC0-tau,ss Geometric LSM): 74400 ng·h/mL | Cmax ([3]; 100 mg, Topiramate Alone, read-out: Cmax,ss Geometric LSM): 7500 ng/mL | AUC ([3]; 100 mg, topiramate 100 mg BID alone, day 10, read-out: AUC0-tau,ss): 76500 ng·h/mL | Cmax ([3]; 100 mg, topiramate 100 mg BID alone, day 10, read-out: Cmax,ss): 7700 ng/mL | AUC ([3]; Topiramate and Atogepant, read-out: AUC0-tau,ss Geometric LSM): 70300 ng·h/mL | Cmax ([3]; Topiramate and Atogepant, read-out: Cmax,ss Geometric LSM): 7000 ng/mL | AUC ([3]; topiramate 100 mg BID + atogepant 60 mg QD, day 17, read-out: AUC0-tau,ss): 72600 ng·h/mL | Cmax ([3]; topiramate 100 mg BID + atogepant 60 mg QD, day 17, read-out: Cmax,ss): 7300 ng/mL | delay of median Tmax,ss of topiramate ([3]; coadministered with atogepant): 0.5 h | Cavg,ss [3, 6]: 6000 ng/mL | Cmin,ss [3, 6]: 4700 ng/mL | Tmax,ss (median) [3, 6]: 2.0 h | Cavg,ss [3, 7]: 6400 ng/mL | Cmin,ss [3, 7]: 5200 ng/mL | Tmax,ss (median) [3, 7]: 1.5 h | reduction of topiramate AUC0-tau,ss [3, 8]: 5% | reduction of topiramate Cmax,ss [3, 8]: 6% | Deaths, % ([4]; cohort 2, topiramate + atogepant (n = 24)): (0) % | Deaths, % ([4]; cohort 2, topiramate alone (n = 25)): (0) % | TEAEs leading to discontinuation, % ([4]; human, in vivo): (8.0) % | TESAEs, % ([4]; human, in vivo): (0) % | Treatment-related TEAEs, % ([4]; human, in vivo): (52.0) % | Treatment-related TESAEs, % ([4]; human, in vivo): (0) % | constipation reported ([4]; human, in vivo): 2 participants | nausea reported ([4]; human, in vivo): 3 participants | TEAEs, % ([4]; human, in vivo, 10 days): (64.0) % | elimination half-life [5]: approximately 21 hours
